Measured values: patent US20070154882A1, “Beta-polypeptides that inhibit cytomegalovirus infection” (priority 2005, published 2007)

Assays:
[1] = system: NHDF cells
[2] = system: human red blood cells
[3] = system: HCMV membrane fusion (nuclear localization of pp65) in NHDF cells; assay: pp65 translocation (virion content delivery) assay; assay type: cell-based; settings: HCMV diluted with 100 µM beta-peptide; 4° C. 90 min, then 37° C. 35 min
Experimental: NHDF cells were grown on glass cover-slips in 12-well plates as above. The HCMV was diluted with 100 µM beta-peptide in SF-DMEM and cooled to 4° C. The treatment was then added to cooled cells, which were incubated at 4° C. for 90 min, assuring viral attachment but not entry. The cells were then transferred to 37° C. for 35 min. The cells were then fixed in 3% paraformaldehyde and immunostained for pp65 as described (Lopper, M.; Compton, T. (2004) in J. Virol. Vol. 78, pp. 8333-8341). Images were taken on the Nikon Eclipse TE2000-S with appropriate filters, using consistent exposure times.
The infectivity assays used in these Examples measures immediate early gene expression; immediate early (IE) proteins are the first viral proteins expressed in infected cells. Inhibition of viral gene expression could reflect interference at a variety of points in the virus life cycle such as inhibition of IE gene transcription or translation. A virion content delivery assay was performed to test whether the beta-peptides act at the viral entry stage, as they have been designed to do. Immediately upon membrane fusion, the phosphoprotein-rich tegument layer of the virus is released into the cytoplasm of the target cell. The pp65 protein, highly abundant in the virion tegument, diffuses rapidly to the nucleus after membrane fusion. […]

Row | Molecule | Cytotoxicity, as indicated by P1 uptake [1] | also measured
1 | CC(=O)NC1CCCC1C(=O)N[C@H](CC(=O)NC1CCCC1C(=O)NC[C@H](CC(C)C)C(=O)NC1CNCC1C(=O)NC1CNCC1C(=O)N[C@H](CC(=O)NC1CCCC1C(=O)NC[C@H](Cc1ccc(O)cc1)C(=O)NC1CNCC1C(=O)NC1CNCC1C(=O)N[C@H](CC(=O)NC1CNCC1C(N)=O)C(C)C)Cc1ccc2ccccc2c1)CC(C)C (some centres unmarked) [EPE-II-231] | Toxic | 
2 | CC(=O)NC1CCCC1C(=O)N[C@H](CC(=O)NC1CCCC1C(=O)NC[C@H](CC(C)C)C(=O)NC1CNCC1C(=O)NC1CNCC1C(=O)N[C@H](CC(=O)NC1CCCC1C(=O)NC[C@H](Cc1ccc(O)cc1)C(=O)NC1CNCC1C(=O)NC1CNCC1C(=O)N[C@H](CC(=O)NC1CNCC1C(N)=O)Cc1cccc2ccccc12)Cc1ccccc1)CC(C)C (some centres unmarked) [EPE-II-227] | Toxic | 
3 | CC(=O)NC1CCCC1C(=O)N[C@H](CC(=O)NC1CCCC1C(=O)NC[C@H](CC(C)C)C(=O)NC1CNCC1C(=O)NC1CNCC1C(=O)N[C@H](CC(=O)NC1CCCC1C(=O)NC[C@H](Cc1ccc(O)cc1)C(=O)NC1CNCC1C(=O)NC1CNCC1C(=O)N[C@H](CC(=O)NC1CNCC1C(N)=O)C(C)C)Cc1cccc2ccccc12)CC(C)C (some centres unmarked) [EPE-II-233] | Toxic | 
4 | CC(=O)NC[C@H](Cc1ccc(O)cc1)C(=O)NC1CCCC1C(=O)NC1CNCC1C(=O)NC1CNCC1C(=O)N[C@H](CC(=O)NC1CNCC1C(=O)NC1CNCC1C(=O)NC1CCCC1C(=O)NC[C@H](CC(C)C)C(=O)NC1CNCC1C(=O)NC1CCCC1C(=O)N[C@H](CC(=O)N[C@H](CC(N)=O)Cc1ccccc1)C(C)C)CC(C)C (some centres unmarked) [ERP-II-005] |  | disruption of cell membranes [2]: does not simply disrupt cell membranes; toxicity toward fibroblasts [1]: highly toxic
5 | CNC(=O)C[C@H](C)NC(=O)COC(=O)[C@H]1CCCN1C(=O)CC(Cc1ccccc1)NC(C)=O (some centres unmarked) |  | melting point: 128 to 129 °C
6 | CC(=O)NC1CCCC1C(=O)N[C@H](CC(=O)NC1CCCC1C(=O)NC[C@H](CC(C)C)C(=O)NC1CNCC1C(=O)NC1CNCC1C(=O)N[C@H](CC(=O)NC1CCCC1C(=O)NC[C@H](Cc1ccc(O)cc1)C(=O)NC1CNCC1C(=O)NC1CNCC1C(=O)N[C@H](CC(=O)NC1CNCC1C(N)=O)Cc1ccc2ccccc2c1)Cc1ccccc1)CC(C)C (some centres unmarked) [EPE-II-225] | Toxic | 
7 | heparin |  | nuclear localization of pp65 [3]: eliminates pp65 accumulation in the nucleus
